Test results reported in PubChem BioAssay AID2060340 (Molecular Pharmacology Branch, DTP, NCI, 2025).
Several values for one entry are separate records, joined by “and”; a condition that tells them apart may be missing. Equal entries are not always repeated.

Tested on: 349418-098-R-PDC spheroids, viability, % test/control
Assay: Anticancer human tumor 349418-098-R-PDC patient-derived lung adenocarcinoma cell line growth inhibition [IpAb]
Settings: spheroids with HUVEC and MSC; for viability, T/C: stronger effect = lower value; active = viability on the fitted dose curve at most 10% of control; inactive = the rest
From the text: Combinatorial screen of targeted agents with ipatasertib and abemaciclib in multi-cell type tumor spheroids
A high-throughput screen of multi-cell type tumor spheroids was designed to identify active combinations of targeted small molecules and ipatasertib or abemaciclib. Complex spheroids include a stromal component modeled by human endothelial cells (HUVEC) and fibroblasts modeled by human mesenchymal stem cells (MSCs). The concentration ranges selected for each drug and investigational agent were based upon clinically achievable concentrations if the clinical Cmax of the agent was known.
Compounds. The drugs and investigational agents: ipatasertib (NSC767898), abemaciclib(NSC768073), selumetinib (NSC741078), trametinib (758246), adavosertib (NSC754352), everolimus (NSC733504), sapanisertib (NSC764658), vemurafenib (NSC761431), venetoclax (NSC766270), copanlisib (NSC809693), apelisib (NSC765974), palbociblib (NSC758247), vemurafenib (NSC761431), dabrafenib (NSC764134), ravoxertinib (NSC781343), BMS-387032 (NSC767048), sotorasib (NSC818433), talazoparib (NSC767125) and afursertib (NSC778305), were obtained from the National Cancer Institute (NCI) Developmental Therapeutics Program Chemical Repository. The FDA-approved anticancer drug set is available from the NCI Developmental Therapeutics Program. […] The stock solutions were prepared in dimethyl sulfoxide (DMSO, Sigma-Aldrich, St. Louis, MO, cat. D2650) at 800-fold the tested concentration and stored at -70 degrees C prior to their use. All drugs and investigational agents were tested over a range starting from a high concentration at or near the clinical Cmax and decreasing in half-log increments. If the clinical Cmax for an agent had not been determined, the highest concentration tested was 10 microM.
NCI60 Cell Culture. NCI60 cell lines were obtained from the NCI Developmental Therapeutics Program Tumor Repository. For each lot of cells, the Repository performed Applied Biosystems AmpFLSTR Identifiler testing with PCR amplification to confirm consistency with the published Identifier STR profile for each cell line. Cells were kept in continuous culture for no more than 20 passages. The optimal seeding densities for each of the cell lines at each time point assessed were determined prior to performing the concentration response studies. Briefly, the NCI60 human tumor lines were grown as monolayers in RPMI 1640 medium supplemented with 10% FBS and 2 mmol/L L-glutamine.
An additional 9 lines were from the NCI60 cell line panel including MDA-MB-231 breast carcinoma, MDA-MB-468 breast carcinoma, MCF7 breast carcinoma, Hs578T breast carcinoma, MALME-3M melanoma, SK-MEL-2 melanoma, SK-OV-3 ovarian carcinoma, DU-145 prostate carcinoma, PC-3 prostate carcinoma, all cell lines along with major genetic alterations are listed on Table 2. Pooled donor human umbilical vein endothelial cells (HUVEC, Lonza, cat. CC-2519) and human mesenchymal stem cells (hMSC, Lonza, cat. PT-2501) were purchased from Lonza (Walkersville, MD).
PDMR cell lines were grown in complete medium (DC medium): Dulbecco's modified Eagle's medium (DMEM)/F12 supplemented with 5% fetal bovine serum (FBS), 2 mM L-glutamine, 100 U/mL penicillin and 100 µg/ml streptomycin, 0.4 µg/ml hydrocortisone, 10 ng/ml epidermal growth factor (EGF) recombinant human protein, 24 µg/mL adenine, and 0.1 mg/mL primocin. During culture from frozen stock vials, PDMR cells were cultured in the same medium containing 10 µM Y-27632 (see Table 3). The PDCs were cultured in complete DMEM/F12 media without 10 microM Y-27632 dihydrochloride for at least two passages prior to the screen. The pooled donor HUVEC and hMSC were cultured in endothelial cell growth medium 2 (PromoCell, Heidelberg, Germany, cat. C-22011) and mesenchymal stem cell growth medium 2 (PromoCell, cat. C-28009), respectively. For all experiments, HUVEC and hMSC were used at passages </=5.
[…]

[1] = curve of first compound, second compound 0.1 µM
[2] = curve of first compound, second compound 0.316 µM
[3] = curve of first compound, second compound 1 µM
[4] = curve of first compound, second compound 3.16 µM
[5] = curve of first compound, second compound 10 µM
[6] = second compound 0.1 µM, first compound 0.0316 µM
[7] = second compound 0.1 µM, first compound 0.1 µM
[8] = second compound 0.316 µM, first compound 0.0316 µM
[9] = second compound 0.316 µM, first compound 0.1 µM
[10] = second compound 1 µM, first compound 0.0316 µM
[11] = second compound 1 µM, first compound 0.1 µM
[12] = second compound 3.16 µM, first compound 0.0316 µM
[13] = second compound 3.16 µM, first compound 0.1 µM
[14] = second compound 10 µM, first compound 0.0316 µM
[15] = second compound 10 µM, first compound 0.1 µM
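Also: spheroids exposed to compounds for 7 days.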

CC(C)n1nc(-c2ccc3oc(N)nc3c2)c2c(N)ncnc21 + CC(C)NCC(C(=O)N1CCN(c2ncnc3c2C(C)CC3O)CC1)c1ccc(Cl)cc1
< 0.000316 µM: IC50 [2] | IC50 [3] | IC50 [4] | IC50 [5]
0.000681 µM: IC50 [1]
inactive: viability, T/C (second compound 0.1 µM, first compound 0.000316 µM) 69.4% | viability, T/C (second compound 0.1 µM, first compound 0.001 µM) 40.3% | viability, T/C (second compound 0.1 µM, first compound 0.00316 µM) 14.5% | viability, T/C (second compound 0.316 µM, first compound 0.000316 µM) 31.8% | viability, T/C (second compound 0.316 µM, first compound 0.001 µM) 17.4% | viability, T/C (second compound 1 µM, first compound 0.000316 µM) 14.4% | viability, T/C (second compound 3.16 µM, first compound 0.000316 µM) 10.7%
active: viability, T/C (second compound 0.1 µM, first compound 0.01 µM) 7.8% | viability, T/C [6] 6.65% | viability, T/C [7] 6.26% | viability, T/C (second compound 0.316 µM, first compound 0.00316 µM) 8.31% | viability, T/C (second compound 0.316 µM, first compound 0.01 µM) 5.95% | viability, T/C [8] 5.66% | viability, T/C [9] 5.5% | viability, T/C (second compound 1 µM, first compound 0.001 µM) 8.54% | viability, T/C (second compound 1 µM, first compound 0.00316 µM) 5.9% | viability, T/C (second compound 1 µM, first compound 0.01 µM) 4.87% | viability, T/C [10] 5.35% | viability, T/C [11] 4.7% | viability, T/C (second compound 3.16 µM, first compound 0.001 µM) 6.81% | viability, T/C (second compound 3.16 µM, first compound 0.00316 µM) 5.04% | viability, T/C (second compound 3.16 µM, first compound 0.01 µM) 4.7% | viability, T/C [12] 4.32% | viability, T/C [13] 5.98% | viability, T/C (second compound 10 µM, first compound 0.000316 µM) 6.8% | viability, T/C (second compound 10 µM, first compound 0.001 µM) 5.96% | viability, T/C (second compound 10 µM, first compound 0.00316 µM) 5.29% | viability, T/C (second compound 10 µM, first compound 0.01 µM) 3.92% | viability, T/C [14] 4.43% | viability, T/C [15] 4.42%

CC(=O)c1c(C)c2cnc(Nc3ccc(N4CCNCC4)cn3)nc2n(C2CCCC2)c1=O
0.0144 µM and 0.0182 µM: IC50 (curve of compound)
inactive: viability, T/C (compound 0.000949 µM) 97.3% and 86.4% | viability, T/C (compound 0.003 µM) 82.9% and 78.7% | viability, T/C (compound 0.00949 µM) 61.7% | viability, T/C (compound 0.03 µM) 30.8% and 42.2% | viability, T/C (compound 0.0949 µM) 24.5% and 21.1% | viability, T/C (compound 0.3 µM) 16.8% and 16.9%

CCCS(=O)(=O)Nc1ccc(F)c(C(=O)c2c[nH]c3ncc(-c4ccc(Cl)cc4)cc23)c1F + CC(C)NCC(C(=O)N1CCN(c2ncnc3c2C(C)CC3O)CC1)c1ccc(Cl)cc1
active: viability, T/C (second compound 1 µM, first compound 3.16 µM) 11% | viability, T/C (second compound 1 µM, first compound 10 µM) 7.7% | viability, T/C [13] 7.85% | viability, T/C (second compound 3.16 µM, first compound 0.316 µM) 7.36% | viability, T/C (second compound 3.16 µM, first compound 1 µM) 6.91% | viability, T/C (second compound 3.16 µM, first compound 3.16 µM) 7.18% | viability, T/C (second compound 3.16 µM, first compound 10 µM) 6.15% | viability, T/C [14] 6.76% | viability, T/C [15] 6.33% | viability, T/C (second compound 10 µM, first compound 0.316 µM) 5.46% | viability, T/C (second compound 10 µM, first compound 1 µM) 5.62% | viability, T/C (second compound 10 µM, first compound 3.16 µM) 5.53% | viability, T/C (second compound 10 µM, first compound 10 µM) 4.47%
inactive: viability, T/C [6] 56.4% | viability, T/C [7] 48.1% | viability, T/C (second compound 0.1 µM, first compound 0.316 µM) 42.4% | viability, T/C (second compound 0.1 µM, first compound 1 µM) 38.4% | viability, T/C (second compound 0.1 µM, first compound 3.16 µM) 33.5% | viability, T/C (second compound 0.1 µM, first compound 10 µM) 15.7% | viability, T/C [8] 32.9% | viability, T/C [9] 29.4% | viability, T/C (second compound 0.316 µM, first compound 0.316 µM) 29.8% | viability, T/C (second compound 0.316 µM, first compound 1 µM) 21.7% | viability, T/C (second compound 0.316 µM, first compound 3.16 µM) 21.4% | viability, T/C (second compound 0.316 µM, first compound 10 µM) 11.2% | viability, T/C [10] 19.1% | viability, T/C [11] 16.6% | viability, T/C (second compound 1 µM, first compound 0.316 µM) 11.9% | viability, T/C (second compound 1 µM, first compound 1 µM) 10.1% | viability, T/C [12] 9.81%
0.106 µM: IC50 [1]
< 0.0316 µM: IC50 [2] | IC50 [3] | IC50 [4] | IC50 [5]
